The values below come from BindingDB's records for doi:10.1021/jm051059p (Merck Frosst Centre For Therapeutic Research, 2006).

In the experiment the target is T1, Cathepsin K (Oryctolagus cuniculus, UniProt P43236).
T1 sequence (P43236 whole entry): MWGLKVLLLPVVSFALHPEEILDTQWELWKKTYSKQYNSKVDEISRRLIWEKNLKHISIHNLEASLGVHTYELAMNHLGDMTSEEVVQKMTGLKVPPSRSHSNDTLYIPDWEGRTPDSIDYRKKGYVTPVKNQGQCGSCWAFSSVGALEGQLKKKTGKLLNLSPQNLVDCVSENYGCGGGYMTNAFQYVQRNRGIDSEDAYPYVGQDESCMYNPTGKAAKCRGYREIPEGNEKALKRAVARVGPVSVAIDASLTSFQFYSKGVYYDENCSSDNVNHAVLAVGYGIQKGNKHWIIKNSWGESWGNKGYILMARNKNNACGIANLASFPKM
Briefly: Enzyme Inhibition Assay. As to the method: Prior to the addition of substrate, different concentrations of the inhibitor ranging from 100 uM to 0.2 nM were preincubated for 15 min with enzyme to allow the establishment of the enzyme-inhibitor complex. The proteolytic cleavage of N-acyl aminocoumarins by cathepsins was conducted in 96-well plate format and the plate read using a Spectramax (Molecular Devices) plate reader. The excitation wavelength was 355 nm and the emission wavelength was 460 nm for peptidyl-AMC substrates. The percent inhibition of the reaction was calculated from a control reaction containing only vehicle. IC50 curves were generated by fitting percent inhibition values to a four parameter logistic model (SOFTMAX PRO, Molecular Devices).

Usually IC50 stands for the point on the concentration scale where inhibition reaches its midpoint. A low value points to higher potency. Where the note is “pH 5.5, 22 °C”, `CSc1ccc(/C=C\[C@@H]2CCCC[C@H]2C(=O)NCC#N)cc1` (racemic) [racemic mixture] showed an IC50 of 0.5 nM. This lies in the sub-nanomolar range.

For `N#CCNC(=O)[C@@H]1CC(F)(F)CC[C@H]1c1ccccc1-c1ccc(F)cc1` (racemic) [racemic mixture], the IC50 came to 19 nM.

In turn, `N#CCNC(=O)[C@@H]1CCCC[C@H]1CSc1ccc(N)cc1` (racemic) [racemic mixture] registered an IC50 (pH 5.5, 22 °C) of 100 nM. This lies in the sub-micromolar range.

Turning to `CSc1ccc(CC[C@@H]2CCCC[C@H]2C(=O)NCC#N)cc1` [racemic mixture], the IC50 (pH 5.5, 22 °C) worked out at 1.7 nM.

`Cc1ccc(SC[C@@H]2CCCC[C@H]2C(=O)NCC#N)cc1` [racemic mixture] registered an IC50 (pH 5.5, 22 °C) of 100 nM.
